For one data set, the system named is KLK2, KLK3, and KLK14. Briefly: Streptavidin blotting of LNCaP-K14 conditioned media after treatment with biotinylated ABPs. The format is biochemical, human. To be noted: CM of LNCaP-K14 cells, 10 nM DHT and 200 nM Dox; 1 h; concentration-dependent labeling. The procedure: With ABPs for KLK2, KLK3, and KLK14 in hand, we next addressed selective readouts of KLK activities in a complex biological system. Compounds 20, 31, and 39 were incubated with CM obtained from LNCaP-K14 cells, in which KLK14 expression has been placed under the control of a doxycycline-inducible promoter, stimulated with 10 nM DHT and 200 nM doxycycline (Dox).[15] […] In line with previous reports KLK14 appears as a double band due to protein glycosylation.[15],[39] Selective covalent modification of KLK2, KLK3, and KLK14 by 31, 20, and 39, respectively, was confirmed by streptavidin enrichment and immunoblotting (Figures S19 and S20). In the following experiments, biotinylated ABPs (bABPs) 31, 20, and 39 are named KLK2_bABP, KLK3_bABP, and KLK14_bABP, respectively.
FBS) were seeded onto the bone matrix. As a control the same number of LNCaP cells were seeded in a T175 plate lacking osteoblast cells. After 12 h, the media was aspirated, and the co-culture was incubated with serum-free RPMI media (0 % FBS and phenol red-free) for a further 48 h. After 48 h the media was collected, passed through a 0.2 μm syringe filter and stored at – 80 °C until needed. Indirect Co-culture – After 6 weeks, the media was aspirated, and the differentiated osteoblasts were incubated with serum-free RPMI media (0 % FBS and phenol red-free) for a further 48 h. After 48 h the media was collected, passed through a 0.2 μm syringe filter and then added to a T175 plate of LNCaP cells grown to 80 % confluency and hormone starved for 24 h in RPMI media supplemented with 5 % charcoal stripped FBS. […]
The protein concentration of the homogenate was measured using the DC Protein Assay (BioRad), following the manufacturer’s instructions. […]
Preparation of conditioned media: Samples of conditioned media were removed from – 80 °C storage and concentrated by centrifugation (3000 g, 10 °C) in a 3 KDa molecular weight cut-off spin filter (Amicon) for approximately 3 h. […] The protein concentration of the media was measured using the DC Protein Assay (BioRad), following the manufacturer’s instructions. […]

A further data set deals with LNCaP-K14 cells. The format is cell-based, human. To be noted: for cytotoxicity: 10 μM, 96 h time period; for effect on proliferation (cell confluency): Figure S27. An excerpt:
Prior to the establishment of bone metastases circulating PCa cells must first enter the bone microenvironment by migrating across the sinusoidal wall.[54] We have previously shown that increased KLK14 activity drives PCa cell migration and colonization of mineralized bone matrices.[15] However, the specific contributions of the KLK activome (KLK2, KLK3, and KLK14) toward PCa cell migration are yet to be elucidated. […] We then assessed the migratory capacity of LNCaP-K14 cells using a transwell assay (see Figure S28 for standard curve).
proliferation of LNCaP-K14 cells. Cell confluency was monitored by real-time imaging using
an Incucyte S3 system (Essen Bioscience).
(1 picture or pasted object on this page, not shown here)

Another data set addresses T1, KLK14 (Homo sapiens, UniProt Q9P0G3).
T1 construct: purchased R&D Systems
T1 sequence (Q9P0G3 25-251): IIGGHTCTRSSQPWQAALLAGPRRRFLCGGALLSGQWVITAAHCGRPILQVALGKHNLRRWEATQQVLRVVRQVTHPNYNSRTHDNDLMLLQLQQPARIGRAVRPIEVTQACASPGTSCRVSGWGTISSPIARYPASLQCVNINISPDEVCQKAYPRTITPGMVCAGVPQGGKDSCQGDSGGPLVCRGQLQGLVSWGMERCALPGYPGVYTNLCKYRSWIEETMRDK
In words: Determination of kinact/KI, fluorogenic substrate kinetic assay. The format is biochemical. To be noted: for kinact/KI: mean ± SEM (N = 3).

From article PMC9282638, “A Suite of Activity-Based Probes To Dissect the KLK Activome in Drug-Resistant Prostate Cancer” (Journal of the American Chemical Society, 2021) come the findings set out here.

Regarding `CCC[C@H](NC(=O)[C@H](CCC(N)=O)NC(=O)[C@H](CC(N)=O)NC(=O)CCCCCNC(=O)CCCC[C@@H]1SC[C@@H]2NC(=O)N[C@@H]21)C(=O)NC(c1ccc(C(N)=O)cc1)P(=O)(Oc1ccccc1)Oc1ccccc1` (stereo partly shown) [compound 20], the “targets labeled (probe selectivity)” value in the data set on KLK2, KLK3, and KLK14 is listed as “single target”. In addition, in the data set with LNCaP-K14 cells, the cytotoxicity entry was “no cytotoxicity” and the “effect on proliferation (cell confluency)” value (from here on “effect on proliferation”) is recorded as “no significant effect”.
For the molecule `CC(C)(C)C(NC(=O)CCCCCNC(=O)CCCCC1SCC2NC(=O)NC21)C(=O)NC(CCN)C(=O)NC(Cc1ccc(O)cc1)C(=O)NC(c1ccc(NC(=N)N)cc1)P(=O)(Oc1ccccc1)Oc1ccccc1` (stereo not drawn) [compound 31, Tle-Dab-Tyr-Arg], the kinact/KI (usually the second-order rate constant of inactivation) at KLK14 (KLK2 probe optimization series) was 94 ± 7 M⁻¹ s⁻¹. Besides, the “targets labeled (probe selectivity)” value with KLK2, KLK3, and KLK14 was “single target”. For the same molecule, in the data set with LNCaP-K14 cells, the cytotoxicity entry is reported as “no cytotoxicity” and the “effect on proliferation” value is reported as “no significant effect”.
For the molecule `CCC(NC(=O)C(CCN)NC(=O)C(Cc1ccc2ccccc2c1)NC(=O)CCCCCNC(=O)CCCCC1SCC2NC(=O)NC21)C(=O)NC(c1ccc(NC(=N)N)cc1)P(=O)(Oc1ccccc1)Oc1ccccc1` (stereo not drawn) [compound 39, 2Nal-Dab-Abu-Arg], the “selectivity (fold-change)” value at KLK14 (KLK14 probe optimization series, KLK14 over KLK2) was found to be 220 fold. The kinact/KI on KLK14 (KLK14 probe optimization series) came out at 44500 ± 1980 M⁻¹ s⁻¹. Besides, at KLK14 (relative to compound 32), the “fold higher potency toward KLK14” value is recorded as 80 fold. Besides, the “targets labeled (probe selectivity)” value with KLK2, KLK3, and KLK14 was “single target”. Further, in the data set on LNCaP-K14 cells, the cytotoxicity entry is reported as “no cytotoxicity” and the “effect on proliferation” value is listed as “no significant effect”.
